Where a name gives a salt, the structure may show the parent alone.
target: T1, human TLR8 (hTLR8) (Homo sapiens, UniProt Q9NR97); test: Antagonist screen, hTLR8-NFκB-293 cells, NF-κB-luciferase reporter, with EC50 of R848; format: cell-based; conditions: compound at 0.5, 5, 50 μg/ml; EC50 concentration of R848; 16 h; NF-κB-luciferase
T1 construct: expressed in transfected cells
T1 sequence (Q9NR97 27-1041): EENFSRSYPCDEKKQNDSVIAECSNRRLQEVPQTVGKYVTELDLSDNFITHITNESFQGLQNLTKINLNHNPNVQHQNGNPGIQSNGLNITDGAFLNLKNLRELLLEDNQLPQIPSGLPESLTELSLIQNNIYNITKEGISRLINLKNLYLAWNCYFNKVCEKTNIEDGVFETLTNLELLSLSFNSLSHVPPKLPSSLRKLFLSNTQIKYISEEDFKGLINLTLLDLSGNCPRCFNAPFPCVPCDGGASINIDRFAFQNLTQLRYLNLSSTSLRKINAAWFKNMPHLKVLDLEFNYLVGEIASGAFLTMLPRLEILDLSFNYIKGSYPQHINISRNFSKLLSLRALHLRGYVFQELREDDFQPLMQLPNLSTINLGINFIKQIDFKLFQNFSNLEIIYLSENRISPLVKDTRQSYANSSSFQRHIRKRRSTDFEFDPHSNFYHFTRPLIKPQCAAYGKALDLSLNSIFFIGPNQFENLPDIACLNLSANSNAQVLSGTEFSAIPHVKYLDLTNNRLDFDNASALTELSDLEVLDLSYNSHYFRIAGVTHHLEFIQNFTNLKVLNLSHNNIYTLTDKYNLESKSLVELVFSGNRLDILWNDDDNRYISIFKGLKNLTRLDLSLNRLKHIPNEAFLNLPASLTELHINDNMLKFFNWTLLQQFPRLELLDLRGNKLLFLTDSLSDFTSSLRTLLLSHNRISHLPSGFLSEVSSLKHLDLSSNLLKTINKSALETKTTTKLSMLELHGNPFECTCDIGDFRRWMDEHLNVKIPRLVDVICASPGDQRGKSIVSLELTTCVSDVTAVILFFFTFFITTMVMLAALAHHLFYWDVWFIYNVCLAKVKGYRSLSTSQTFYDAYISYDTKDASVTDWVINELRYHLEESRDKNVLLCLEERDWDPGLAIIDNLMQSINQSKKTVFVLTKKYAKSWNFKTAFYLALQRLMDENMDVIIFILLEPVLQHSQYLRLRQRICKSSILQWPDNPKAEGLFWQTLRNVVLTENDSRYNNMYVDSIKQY

| Compound | hTLR8 (inhibitory effect, antagonist score) |
| --- | --- |
| COc1cc2nc(N3CCN(C(=O)C4COc5ccccc5O4)CC3)nc(N)c2cc1OC.CS(=O)(=O)O (stereo not drawn) [compound 858, Doxazosin mesylate] | — (compounds for which there was no clear down regulation even at 50 μg/ml) |
| COc1cc2nc(N3CCN(C(=O)C4CCCO4)CC3)nc(N)c2cc1OC.Cl (stereo not drawn) [compound 751, Terazosin hydrochloride] | — (compounds for which there was no clear down regulation even at 50 μg/ml) |
| CCN(CC)CCCC(C)Nc1nc(/C=C/c2ccc(Cl)cc2)nc2cc3ccccc3cc12 (stereo not drawn) [compound 2000] | 11 (compounds for which there was clear down regulation only at 50 μg/ml) |
| CN(C)C(=O)C(CCN1CCC(O)(c2ccc(Cl)cc2)CC1)(c1ccccc1)c1ccccc1 [compound 144, Loperamidehydrochloride] | 11 (compounds for which there was clear down regulation only at 50 μg/ml) |
| COc1cc2c(cc1O)C[C@H]1c3c(cc(O)c(OC)c3-2)CCN1C [compound 600, Boldine] | — (compounds for which there was no clear down regulation even at 50 μg/ml) |
| CN1CCc2cccc3c2[C@H]1Cc1ccc(O)c(O)c1-3.Cl [compound 101, Apomorphinehydrochloride (R, —)] | 11 (compounds for which there was clear down regulation only at 50 μg/ml) |
| CN1CCc2cc3c(c4c2C1Cc1ccccc1-4)OCO3.Cl (stereo not drawn) [compound 669, Remerine hydrochloride] | — (compounds for which there was no clear down regulation even at 50 μg/ml) |
| CC(C)(C)c1ccc(C(O)CCCN2CCC(C(O)(c3ccccc3)c3ccccc3)CC2)cc1 (stereo not drawn) [compound 138, Terfenadine] | 11 (compounds for which there was clear down regulation only at 50 μg/ml) |

same assay, conditions: hTLR8-NFκB-293 cells, with EC50 of R848; compound at 0.5, 5 and 50 μg/ml

| Compound | hTLR8 (inhibitory effect) |
| --- | --- |
| O=C(CN1CCCC1)Nc1c2c(nc3ccccc13)N(c1ccccc1)CC2 [compound 1244] | 11 (compounds for which there was clear down regulation only at 50 μg/ml) |
| O=c1c2c(nc(NCCO)n1-c1ccccc1)-c1ccccc1CC21CCCC1 [compound 891] | — (compounds for which there was no clear down regulation even at 50 μg/ml) |
| CCCCCCCCCCCC(=O)Nc1c2c(nc3ccccc13)N(C)CC2 [compound 1334] | — (compounds for which there was no clear down regulation even at 50 μg/ml) |
| CN1CCc2c1nc1ccccc1c2NC(=O)CN1CCCCCC1 [compound 1003] | — (compounds for which there was no clear down regulation even at 50 μg/ml) |
| Nc1c2c(nc3ccccc13)N(Cc1ccccc1)CC2 [compound 1217, 1-Benzyl-2,3-dihydro-1H-pyrrolo[2,3-b]quinolin-4-ylamine] | 11 (compounds for which there was clear down regulation only at 50 μg/ml) |
| CN1CCc2c1nc1ccc(Br)cc1c2N [compound 1142, 6-Bromo-1-methyl-2,3-dihydro-1H-pyrrolo[2,3-b]quinolin-4-ylamine] | 11 (compounds for which there was clear down regulation only at 50 μg/ml) |
| Cc1ccc(-n2c(NCCO)nc3c(c2=O)C2(CCCCC2)Cc2ccccc2-3)cc1 [compound 1137] | 11 (compounds for which there was clear down regulation only at 50 μg/ml) |
| COc1cc2cc3c4cc(OC)c(OC)cc4cc[n+]3c(C)c2cc1OC [compound 431, Coralyne chloridehydrate] | — (compounds for which there was no clear down regulation even at 50 μg/ml) |
| CN1CCCCc2c1nc1ccccc1c2N [compound 1185, 1-Methyl-2,3,4,5-tetrahydro-1H-azepino[2,3-b]quinolin-6-ylamine] | — (compounds for which there was no clear down regulation even at 50 μg/ml) |
| Cc1ccc2nc3c(c(N)c2c1)CCN3C [compound 1091, 1,6-Dimethyl-2,3-dihydro-1H-pyrrolo[2,3-b]quinolin-4-ylamine] | 11 (compounds for which there was clear down regulation only at 50 μg/ml) |
| NNc1nc2c(c(=O)n1C1CCCC1)C1(CCCC1)Cc1ccccc1-2 [compound 1248] | 11 (compounds for which there was clear down regulation only at 50 μg/ml) |
| Cn1c(NN)nc2c(c1=O)C1(CCCC1)Cc1ccccc1-2 [compound 1213] | — (compounds for which there was no clear down regulation even at 50 μg/ml) |
| O=c1[nH]c(NCCO)nc2c1C1(CCCC1)Cc1ccccc1-2 [compound 1322] | — (compounds for which there was no clear down regulation even at 50 μg/ml) |
| CN1CCc2c1nc1ccccc1c2NC(=O)CN1CCN(c2ccccc2)CC1 [compound 1212] | — (compounds for which there was no clear down regulation even at 50 μg/ml) |
| O=c1c2c(nc(NCCO)n1Cc1ccccc1)-c1ccccc1CC21CCCC1 [compound 926] | 11 (compounds for which there was clear down regulation only at 50 μg/ml) |
| NNc1nc2c(c(=O)n1-c1ccccc1)C1(CCCC1)Cc1ccccc1-2 [compound 1320] | — (compounds for which there was no clear down regulation even at 50 μg/ml) |
| O=C1c2ccc(S(=O)(=O)c3ccc4c(c3)C(=O)N(c3ccccn3)C4=O)cc2C(=O)N1c1ccccn1 [compound 1163] | 11 (compounds for which there was clear down regulation only at 50 μg/ml) |
| O=C1c2ccc(Oc3ccc(S(=O)(=O)c4ccc(Oc5ccc6c(c5)C(=O)N(c5ccccn5)C6=O)cc4)cc3)cc2C(=O)N1c1ccccn1 [compound 1367] | 11 (compounds for which there was clear down regulation only at 50 μg/ml) |
| COc1ccc2cc3[n+](cc2c1OC)CCc1cc2c(cc1-3)OCO2.[Cl-] [compound 586, Berberine chloride] | 12 (compounds for which there was clear down regulation at 5 μg/ml and 50 μg/ml) |
| COc1ccc(Cc2nccc3cc(OC)c(OC)cc23)cc1OC.Cl [compound 583, Papaverinehydrochloride] | — (compounds for which there was no clear down regulation even at 50 μg/ml) |
| CCCCCCN(CCCCCC)CC(=O)Nc1c2c(nc3ccccc13)N(C)CC2 [compound 1224] | 12 (compounds for which there was clear down regulation at 5 μg/ml and 50 μg/ml) |
| CN(C)CCN(Cc1ccc(Cl)cc1)c1ccccn1.Cl [compound 807, Chloro-pyraminehydrochloride] | — (compounds for which there was no clear down regulation even at 50 μg/ml) |
| CCOc1ccc(Cc2nccc3cc(OCC)c(OCC)cc23)cc1OCC.Cl [compound 830, Ethaverinehydrochloride] | 11 (compounds for which there was clear down regulation only at 50 μg/ml) |
| CN1CCc2c1nc1ccccc1c2N [compound 990, 1-Methyl-2,3-dihydro-1H-pyrrolo[2,3-b]quinolin-4-ylamine] | — (compounds for which there was no clear down regulation even at 50 μg/ml) |
| CC[N+](C)(CC)CCC[n+]1c(-c2ccccc2)c2cc(N)ccc2c2ccc(N)cc21.[I-].[I-] [compound 792, Propidium iodide] | — (compounds for which there was no clear down regulation even at 50 μg/ml) |

Reference: patent US7410975B2, “Small molecule toll-like receptor (TLR) antagonists” (Coley Pharmaceutical Group, Inc., priority 2003, dated 2008)
